Assay results published in patent US8673815B2, “Herbicidal composition” (Ishihara Sangyo Kaisha, Ltd., priority 2010, dated 2014).

How the values were obtained:
[1] = system: crabgrass (Digitaria sanguinalis.); assay: Foliar treatment pot test on crabgrass, visual growth inhibition rate (Test Example 1); format: in vivo; settings: foliar treatment at 3.8 to 4.0-leaf stage, 28th day after treatment, read-out: Growth inhibition rate (%) of crabgrass, Measured value
From the text: When the herbicidal activity in a case where two active ingredients are combined, is larger than the simple sum of the respective herbicidal activities of the two active ingredients (the expected activity), it is called a synergistic effect. The activity expected by the combination of two active ingredients can be calculated as follows (Colby S. […] E=α+β-(α×β÷100) where α: growth inhibition rate when treated with x (g/ha) of herbicide X, β: growth inhibition rate when treated with y (g/ha) of herbicide Y, E: growth inhibition rate expected when treated with x (g/ha) of herbicide X and y (g/ha) of herbicide Y. Upland field soil was put into a 1/1,000,000 ha pot, and seeds of crabgrass (Digitaria sanguinalis.) were sown. When the crabgrass reached 3.8 to 4.0-leaf stage, predetermined amounts of water dispersible granules comprising flazasulfuron as an active ingredient (trade name: […] manufactured by Ishihara Sangyo Kaisha, Ltd.) were diluted with water (corresponding to 300 L/ha) containing 0.1 vol % of an agricultural adjuvant (trade name: […] manufactured by NIHON NOHYAKU CO., LTD.) and applied for foliar treatment by a small sprayer. On the 28th day after treatment, the state of growth of the crabgrass was visually observed to determine the growth inhibition rate in accordance with the following evaluation standard. The growth inhibition rate (%) (measured value) and the growth inhibition rate (%) (calculated value) calculated by the Colby's formula are shown in Table 1. Growth inhibition rate (%)=0 (equivalent to the non-treated area) to 100 (complete kill)

[2] = system: bermuda grass (Cynodon dactylon (L.) Pers.); assay: Foliar treatment pot test on bermuda grass, visual growth inhibition rate (Test Example 2); format: in vivo; settings: in Cynodon dactylon, foliar treatment at 5.0 to 7.0-leaf stage, 21st day after treatment, read-out: Growth inhibition rate (%) of bermuda grass, Measured value
From the text: When the herbicidal activity in a case where two active ingredients are combined, is larger than the simple sum of the respective herbicidal activities of the two active ingredients (the expected activity), it is called a synergistic effect. The activity expected by the combination of two active ingredients can be calculated as follows (Colby S. R., “Weed”, vol. 15, p. 20-22, 1967). E=α+β-(α×β÷100) where α: growth inhibition rate when treated with x (g/ha) of herbicide X, β: growth inhibition rate when treated with y (g/ha) of herbicide Y, E: growth inhibition rate expected when treated with x (g/ha) of herbicide X and y (g/ha) of herbicide Y. Growth inhibition rate (%)=0 (equivalent to the non-treated area) to 100 (complete kill) Upland field soil was put into a 1/1,000,000 ha pot, and seeds of bermuda grass (Cynodon dactylon (L.) Pers.) were sown. When the bermuda grass reached 5.0 to 7.0-leaf stage, predetermined amounts of water dispersible granules comprising flazasulfuron as an active ingredient (trade name: […]) were diluted with water (corresponding to 1,000 L/ha) containing 0.05 vol % of an agricultural adjuvant (trade name: […]) and applied for foliar treatment by a small sprayer. On the 21st day after treatment, the state of growth of the bermuda grass was visually observed to determine the growth inhibition rate. The growth inhibition rate (%) (measured value) and the growth inhibition rate (%) calculated in the same manner as in Test Example 1 are shown in Table 2.

Row | SMILES | inhibition at 12.5 g/ha ([1]; dose 12.5 g/ha) [%] | inhibition at 10 g/ha [2] [%] | inhibition at 200 g/ha ([2]; dose 200 g/ha) [%] | inhibition at 15 g/ha ([1]; dose 15 g/ha) [%] | inhibition at 40 g/ha ([1]; dose 40 g/ha) [%] | inhibition at 150 g/ha ([2]; dose 150 g/ha) [%]
1 | COc1cc(OC)nc(NC(=O)NS(=O)(=O)c2ncccc2C(F)(F)F)n1 [Flazasulfuron, 1-(4,6-dimethoxypyrimidin-2-yl)-3-(3-trifluoromethyl-2-pyridylsulfonyl)urea] | 87 | 0 | 45 | – | – | –
2 | COc1cc(OC)nc(NC(=O)NS(=O)(=O)c2ncccc2C(=O)N(C)C)n1 [Nicosulfuron, 2-(4,6-dimethoxypyrimidin-2-ylcarbamoylsulfamoyl)-N,N-dimethylnicotinamide] | – | 8 | – | 7 | 22 | 90
